The source of these data is patent US7015249B1, “Methods and compositions for treating diabetes” (Purdue Research Foundation, priority 1997, dated 2006).

One assay relates to ACO and mAP2 mRNA. Put plainly: Tissue-specific gene expression (ACO, mAP2) by RT-PCR in rats fed experimental diets. Format: in vivo, rat. The conditions noted are these: diet 14 days, 1.5% CLA or 0.2% troglitazone, vs control diet. As for the experimental part:
Male Zucker fatty (fa/fa) rats and lean littermates (wt) were obtained at six weeks of age from Genetic Models, Inc. (Indianapolis, Ind.). Because the primary aim of the study was to determine the ability of CLA to improve insulin action and prevent the onset of diabetes, all rats were determined normoglycemic prior to assignment to experimental treatments. (The diets are discussed in the subsequent section). After maintaining rats on experimental diets for 14 days, rats were euthanized by CO2 and cervical dislocation and tissues collected, weighed and frozen. RT-PCR was performed as described above. The genes utilized as markers of tissue and subtype specific PPAR activation included Acyl-CoA Oxidase (ACO; found in the liver and induced by PPARα activation), Adipocyte Specific Protein (mAP2; found in adipose tissue and induced by activation of PPARγ) and ACO in the muscle (induced by PPARβ). […] Body weights were measured twice weekly and average food consumption estimated by measuring differences in weight of freshly supplied diet and diet remaining in feeders two days later. […]

A further assay concerns Zucker rats. Put plainly: Plasma insulin, triglyceride and free fatty acid concentrations in Zucker rats. The assay is classed as in vivo, rat. Conditions: fed, diets 14 days. From the text: Diet components were obtained from Dyets, Inc. (Bethlehem, Pa.) and the CLA isomeric mixture (90% pure mixture) from PharmaNutrients, Chicago, Ill. The CLA mixture had the following isomeric distribution: 42% of a composition including cis,trans-9,11 and trans,cis-9,11-octadecadienoic acid; 43.5% trans,cis-10,12-octadecadienoic acid; 1% cis,cis-9,11-octadecadienoic acid; 1% cis,cis-10,12-octadecadienoic acid; and 1.5% of a composition including trans,trans-9,11-octadecadienoic acid and trans,trans-10,12-octadecadienoic acid, all on a weight percent basis. The CLA mixture also included, on a weight percent basis, about 0.5% linoleate, about 5.5% oleate and about 5% other lipids as discussed above. The thiazolidinedione, TZD (Rezulin™, Parke-Davis, Ann Arbor, MI), was used as a positive control for anti-diabetic activity in these studies. Male Zucker fatty (fa/fa) rats and lean littermates (wt) were obtained at six weeks of age from Genetic Models, Inc. (Indianapolis, Ind.). Because the primary aim of the study was to determine the ability of CLA to improve insulin action and prevent the onset of diabetes, all rats were determined normoglycemic prior to assignment to experimental treatments. After maintaining rats on experimental diets for 14 days, rats were euthanized by CO2 and cervical dislocation and blood collected and immediately analyzed for post-prandial glucose concentrations (see below) or placed into heparinized test tubes for plasma analyses as described below. Epididymal fat pads and livers were harvested and weighed. An aliquot of the epididymal fat pad was isolated into buffered saline for glucose transport analyses and the remaining epididymal fat pad and gastrocnemius muscle were isolated, immediately frozen in liquid nitrogen and stored at −80° C. until mRNA and protein analyses were performed. Three isocaloric, experimental diets were formulated according to a modified AIN-76 mixture containing 6.5% (by weight) fat (diet described in American Institute of Nutrition: Report of the American Institute of Nutrition Ad Hoc Committee on Standards for Nutritional Studies, J. Nutr. 107 1340–1348 (1977) but includes 6.5% by weight fat instead of 5% by weight fat). […] Body weights were measured twice weekly and average food consumption estimated by measuring differences in weight of freshly supplied diet and diet remaining in feeders two days later. […] Blood glucose levels were determined using a One Touch glucose meter (Lifescan, Inc.). Plasma insulin levels were determined using commercially available radioimmunoassay kits (Linco Research, St. Charles, Mo.). Plasma nonesterified fatty acids were quantified using a calorimetric kit (Wako). Plasma triglyceride concentrations were determined using a commercially available kit (Sigma Diagnostics, St. Louis, Mo.).

SMILES strings stand for the structures. Marks after values point to notes of the source that are not given here.

`Cc1c(C)c2c(c(C)c1O)CCC(C)(COc1ccc(CC3SC(=O)NC3=O)cc1)O2` (centres unmarked) [Troglitazone]: the “ACO mRNA expression in tissue with predominantly PPARβ (muscle)” value with ACO and mAP2 mRNA was “no effect”. The figures for the “Free Fatty Acids + S.D.” value in the assay on Zucker rats (fa/fa rats) and in the assay with Zucker rats (wt (lean) rats) were 0.778 + 0.378^c mMol and 1.139 + 0.277^c mMol, respectively. Besides, the “Plasma Triglycerides ± S.D.” value in the assay with Zucker rats (fa/fa rats) is listed as 57.08 ± 12.3^c mg/dl; in the assay with Zucker rats (wt (lean) rats), 61.1 ± 12.1^c mg/dl.
